Several values for one entry are separate records, joined by “and”; a condition that tells them apart may be missing. Identical values can stand only once. Residues, ends and D or L forms follow the SMILES beside them. *: point of attachment. X1 = O=C(/N=C(/NCc1ccc(C(=O)*)cc1)Nc1ccc(Br)cc1)c1ccccc1; code Z = not defined here
Tests used:
[1] = cytotoxic activity on peritoneal macrophages; type: cell-based, Swiss mice; details: Swiss, mouse
Protocol: For the anti-promastigote assays, L. infantum and L. amazonensis cultures in the exponential growth phase were transferred to 96-well plates at a final concentration of 1 × 10^7 promastigotes mL^−1. […] After 72 h, viable promastigotes were determined using the MTT method.
(§1) Anti-promastigote and anti-amastigote assays, the infection index (percentage of infected cells * number of intracellular parasites/numbers of infected cells), and their cytotoxic activity were conducted as previously described.

[2] = test system: L. amazonensis promastigotes; assay: microbe, parasite or virus in culture; details: for IC50: read-out: Promastigote IC50 L. amazonensis in active serum
Description: (§2) Several strategies were employed to increase the stability of peptides, including the incorporation of non-natural amino acids, modifications of the N- and/or C-terminal, cyclization, the use of non-peptide structures (peptidomimetics), and multimerization.

[3] = test system: L. infantum promastigotes; assay: microbe, parasite or virus in culture; details: for IC50: read-out: Promastigote IC50 L. infantum in active serum
Description: as §2

[4] = test system: L. infantum promastigotes; assay: anti-promastigote assay (MTT) against L. infantum; type: cell-based, Leishmania infantum; details: 72 h
Protocol: (§3) L. amazonensis promastigotes (MPRO/BR/1972/M1841-LV-79) were grown in LIT culture medium, while L. infantum promastigotes (MNYC/BZ/62/M379) were cultivated in 199 culture medium (Sigma-Aldrich, St. Louis, MO, USA) supplemented with 10% heat-inactivated fetal bovine serum (FBS; Gibco/Invitrogen) and in 10% urine, at 28 °C, until reaching the mid-log phase of growth. Macrophages were sourced from the peritoneal cavity of Swiss mice, using the methodology outlined by de Almeida et al. 2017 [60]. For the anti-promastigote assays, L. infantum and L. amazonensis cultures in the exponential growth phase were transferred to 96-well plates at a final concentration of 1 × 10^7 promastigotes mL^−1. Subsequently, the tested compounds were added at concentrations ranging from 1.28 to 100 µmol L^−1 to assess their anti-promastigote activity. After 72 h, viable promastigotes were determined using the MTT method.
as §1

[5] = test system: L. infantum intracellular amastigotes; type: cell-based, Leishmania infantum
Protocol: as §1

[6] = test system: L. amazonensis intracellular amastigotes; type: cell-based, Leishmania amazonensis
Protocol: as §1

[7] = target: T1, cysteine protease LmCPB2.8∆CTE (CPB) (Leishmania mexicana, UniProt P36400); assay: cysteine protease (CPB) enzyme inhibition assay; type: biochemical, Leishmania major; details: for inhibition at 20 µM: read-out: CPB Inhibitory Activity 20 μM, 20 μM
T1 sequence (P36400 126-343): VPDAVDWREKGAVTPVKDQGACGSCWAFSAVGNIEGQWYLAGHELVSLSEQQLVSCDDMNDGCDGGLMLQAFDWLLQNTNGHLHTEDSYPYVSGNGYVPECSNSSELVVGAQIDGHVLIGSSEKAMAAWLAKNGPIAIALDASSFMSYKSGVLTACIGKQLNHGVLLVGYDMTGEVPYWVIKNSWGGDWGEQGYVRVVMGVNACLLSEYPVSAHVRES
Protocol: CPB inhibition experiments were performed as described previously by Moreira et al. 2022 [13]. The results were expressed as mean ± standard deviation of two independent replicates.

[8] = test system: L. amazonensis promastigotes; assay: anti-promastigote assay (MTT) against L. amazonensis; type: cell-based, Leishmania amazonensis; details: 72 h
Protocol: as §3, §1

[9] = eukaryotic membrane mimetic POPC/cholesterol, 50 μM
Protocol: As illustrated in Figure 5 and Figure 6, the analyte in question (peptide, bioconjugate, or guanidine) was added within 120 s, and after an interval of 360 s, the behavior of the membrane mimetic was reanalyzed. After this time, 10% triton was added so that the vesicles could completely release the carboxyfluorescein.
Large unilamellar vesicles (LUVs) composed of POPC (1-palmitoyl-2-oleoyl-sn-glycero-3-phosphatidylcholine) and cholesterol (Chol) (4:1) or POPC, POPS (1-palmitoyl-2-oleoyl-sn-glycero-3-serine), and ergosterol (Erg) (8:1:1) were prepared according to the methods described by Lorenzón et al. 2014 [62].

cathepsin B = target: cathepsin B; set-up: method as in PMID 12574338; details: cited from earlier work
[10] = target: T1, cysteine protease LmCPB2.8∆CTE (CPB); details: irreversible inhibitor ref 13; cited from earlier work
[11] = peritoneal macrophages, Table 1 (L. amazonensis series)
[12] = peritoneal macrophages, Table 2 (L. infantum series)
[13] = culture medium with active fetal bovine serum

## C[C@@H]1[C@H](O)[C@@H](C)/C=C/C=C/C=C/C=C/C=C/C=C/C=C/[C@H](O[C@@H]2O[C@H](C)[C@@H](O)[C@H](N)[C@@H]2O)C[C@@H]2O[C@](O)(C[C@@H](O)C[C@@H](O)[C@H](O)CC[C@@H](O)C[C@@H](O)CC(=O)O[C@H]1C)C[C@H](O)[C@H]2C(=O)O [Amp B, Amphotericin B, reference compound]
[1]; [11]
  CC50: 99.8 ± 3.7 µM
[2]; Leishmania amazonensis
  IC50: 0.5 ± 0.1 µM
[3]; Leishmania infantum
  IC50: 0.3 ± 0.1 µM

## O=C(O)c1ccc(CN/C(=N/C(=O)c2ccccc2)Nc2ccc(Br)cc2)cc1 [GVL1, (Z)-4-((2-benzoyl-3-(4-bromophenyl)guanidino)methyl) benzoic acid]
[1]; Table 1 (L. amazonensis series)
  CC50: > 1000 µM
[1]; [12]
  CC50: > 2000 µM
[4]; Leishmania infantum
  IC50: 50.8 ± 2.2 µM
[2]; Leishmania amazonensis
  IC50: 65 ± 2.4 µM
[3]; Leishmania infantum
  IC50: 50 ± 1.2 µM

## N=C(N)NCCC[C@H](NC(=O)[C@H](CCCNC(=N)N)NC(=O)[C@H](CCC(N)=O)NC(=O)[C@H](CCCNC(=N)N)NC(=O)[C@H](CCCNC(=N)N)NC(=O)[C@H](CCCCN)NC(=O)[C@H](CCCCN)NC(=O)[C@H](CCCNC(=N)N)NC(=O)CNC(=O)[C@H](Cc1ccc(O)cc1)NC(=O)c1ccc(CN/C(=N/C(=O)c2ccccc2)Nc2ccc(Br)cc2)cc1)C(=O)O [GVL1-TAT] (X1-YGRKKRRQRR-OH)
[1]; [11]
  CC50: > 1000 µM
[1]; [12]
  CC50: > 2000 µM
[4]
  IC50: 1.2 ± 0.3 µM
[5]; read-out: Amastigote IC50
  IC50: 3.8 ± 0.3 µM
[6]; read-out: Amastigote IC50
  IC50: 0.8 ± 0.06 µM
[7]
  IC50: 3.78 ± 0.1 µM
  inhibition at 20 µM: ~92%
[8]
  IC50: 5.3 µM and 5.32 µM
[9]
  permeabilization of vesicles (carboxyfluorescein release): no damage was observed in the vesicles
[2]; [13]
  IC50: 2.6 ± 0.8 µM
[3]; [13]
  IC50: 1.2 ± 0.3 µM

## Z-Arg-Leu-Val-Gly-Ile-Val-Ome ({code Z}-RLVGIV-OMe; reading uncertain; also: printed as Z-Arg-Leu-Val-Gly-Ile-Val-Ome)
Cathepsin B
  Ki: 0.088 nM

## CC(C)C[C@H](NC(=O)[C@H]1O[C@@H]1C(=O)O)C(=O)NCCCCN=C(N)N (relative stereo) [Compound E64, L-trans-epoxysuccinyl-leucylamido-(4-guanidino)butane]
[10]
  inhibition of Leishmania CPB (potency range): nanomolar range

## N=C(N)NCCC[C@H](NC(=O)[C@H](CCCNC(=N)N)NC(=O)[C@H](CCC(N)=O)NC(=O)[C@H](CCCNC(=N)N)NC(=O)[C@H](CCCNC(=N)N)NC(=O)[C@H](CCCCN)NC(=O)[C@H](CCCCN)NC(=O)[C@H](CCCNC(=N)N)NC(=O)CNC(=O)[C@@H](N)Cc1ccc(O)cc1)C(=O)O [TAT, reference compound] (H-YGRKKRRQRR-OH; N-terminus assumed)
[1]; [11]
  CC50: > 1000 µM
[1]; [12]
  CC50: > 2000 µM
[4]
  Promastigote IC50: no leishmanicidal activity
[5]
  Amastigote IC50: no leishmanicidal activity
[6]
  Amastigote IC50: no activity
[7]
  inhibition at 20 µM: 9.42 ± 0.01%
[8]
  Promastigote IC50: no activity
[2]; [13]
  Promastigote IC50 L. amazonensis in active serum: did not display anti-promastigote activity
[3]; [13]
  Promastigote IC50 L. infantum in active serum: did not display anti-promastigote activity

From publication PMC11768059, “Guanidines Conjugated with Cell-Penetrating Peptides: A New Approach for the Development of Antileishmanial Molecules” (Molecules, 2025)
